The target in data set [1] is T1, PSMA (Homo sapiens, UniProt Q04609).
T1 construct: host or cells: LNCaP cells
Nature of the data set: competitive binding radioassay with [18F]PSMA-1007 as radioactive competitor on LNCaP cells. As for the experimental part: During the pre‐clinical evaluation of [^18F]PSMA‐MIC01, many hospitals including the University Medical Center Groningen changed from using [^68Ga]PSMA‐11 to [^18F]PSMA‐1007. Therefore, the binding affinities for the 2nd generation PSMA‐tracers‐tracers were determined in a radioassay using [^18F]PSMA‐1007 as radioactive competitor (Figure 1 D). page 20: Table S3. Counts per minute (CPM) of the 3 indidicually measured triplicates of [18F]PSMA-MIC01 of n- octanol and PBS Octanol (CPM) PBS (CPM) BLK (CPM) LogD Mean SD […] No 1.2 2995.66 4176463.25 58.39 -3.15 […] No 2.3 1020.97 1916376.47 30.41 -3.29 -3.22 0.09 6. Cell culture. Prostate cancer cell lines PC-3 and LNCaP were obtained from the American Type Culture Collection (ATCC, Manassas, VA). Cells were cultured in RPMI-1640 (Lonza, Swiss), supplemented with 10 % fetal calf serum (FCS, Thermo Scientific Waltham, MA) at 37°C in a humidified 5 % CO2 atmosphere. To enhance adherence of LNCaP cells tissue culture flasks and/or well plates were pre-coated with poly-D-lysine (Merck) according manufacture protocol. Cells were regularly checked for mycoplasma infection. 6.1. Cell binding studies. For the determination of the binding affinity, a competitive binding radioassay was performed. Two 24 well plates were incubated with 50.000 cells 3 to 4 days prior to the cell experiments. After washing the cells twice with warm PBS, new medium was added. For the binding […] cold reference compound F-PSMA-MIC01 were added to the wells shortly before 50 µL of the radioligand [68Ga]PSMA-HBED-CC or [18F]PSMA-1007 to reach a final volume of 500 µL in each well. After incubation of 90 min at 37°C under humidified conditions the cells were washed twice with ice-cold PBS to remove unbound tracer. Cells were detached from the wells using Trypsin supplemented with 25 % EDTA and incubated until cells were completely detached. 900 µL of medium was added and cells were transferred into tubes. The remaining activity in the cells were measured in a γ-counter. Afterwards, the cells were counted in a 1:1 solution of cell suspension and Trypan Blue. The tracer uptake was calculated using Microsoft Excel and corrected for the average number of cells and averaged. The logIC50 value was calculated using the non-linear regression algorithm for a one-site FITlogIC50 […] The graphs represented show the average of the three individual experiments, while the mentioned logIC50 was calculated from the mean of the three experiments; 19

Data set [2] deals with LNCaP tumor. On the set-up: method as in PMID 27789722. Conditions: cited from earlier work.
Data set [3] is described as follows: distribution coefficient logD, n-octanol/PBS. Conditions: n-octanol/PBS, pH 7.4, n-octanol/PBS pH 7.4; overall mean. It counts as physicochemical. As for the experimental part:
page 19: Figure S3: HPLC purification of [18F]PSMA-MIC02 (A) and after 4 h (B). 5. Distribution coefficient LogD. […] cup. 100 µL of the formulated final solution of [18F]PSMA-MIC01 or [18F]PSMA-MIC02 was added and vortexed for 1 minute and centrifuged for 5 min at […]. The different layers were separated and 100 µL of each layer were measured on a γ-counter. Based on the counts per minute (CPM) of each fraction, the partition coefficient was measured with the following formula: log(CPMoctanol/CPMPBS). The obtained data are as followed. Table S2. Counts per minute (CPM) of the 3 indidicually measured triplicates of [18F]PSMA-MIC01 of n- octanol and PBS. Octanol (CPM) PBS (CPM) BLK (CPM) LogD Mean SD […] No 1.2 2823.43 2715328.33 93.59 -2.99 […] No 2.3 394.49 640463.84 93.59 -3.21 […] No 3.2 3690.69 2357291.58 50.84 -2.81 No 3.3 5848.38 3956671.48 52.31 -2.83 -3.01 0.22 18 (1 picture or pasted object on this page, not shown here)

In data set [4] the target is T1, PSMA. Nature of the data set: cell-based competitive binding radioassay with [68Ga]PSMA-11 as radioligand on LNCaP cells. As for the experimental part: To compare the binding affinity of F‐PSMA‐MIC01 with „gold standard“ PSMA‐tracers, the same assay was performed using the precursor of [^68Ga]PSMA‐11 (Figure 2 D).
Table S3. Counts per minute (CPM) of the 3 indidicually measured triplicates of [18F]PSMA-MIC01 of n- […]
Octanol (CPM) PBS (CPM) BLK (CPM) LogD Mean SD
Prostate cancer cell lines PC-3 and LNCaP were obtained from the American Type Culture Collection (ATCC, Manassas, VA). Cells were cultured in RPMI-1640 (Lonza, Swiss), supplemented with 10 % fetal calf serum (FCS, Thermo Scientific Waltham, MA) at 37°C in a humidified 5 % CO2 atmosphere. To enhance adherence of LNCaP cells tissue culture flasks and/or well plates were pre-coated with poly-D-lysine (Merck) according manufacture protocol. Cells were regularly checked for mycoplasma infection.
6.1. Cell binding studies.
For the determination of the binding affinity, a competitive binding radioassay was performed.
Two 24 well plates were incubated with 50.000 cells 3 to 4 days prior to the cell experiments.
After washing the cells twice with warm PBS, new medium was added. For the binding […]
cold reference compound F-PSMA-MIC01 were added to the wells shortly before 50 µL of the radioligand [68Ga]PSMA-HBED-CC or [18F]PSMA-1007 to reach a final volume of 500 µL in each well. After incubation of 90 min at 37°C under humidified conditions the cells were washed twice with ice-cold PBS to remove unbound tracer. Cells were detached from the wells using Trypsin supplemented with 25 % EDTA and incubated until cells were completely detached. […] The remaining activity in the cells were measured in a γ-counter. Afterwards, the cells were counted in a 1:1 solution of cell suspension and Trypan Blue. The tracer uptake was calculated using Microsoft Excel and corrected for the average number of cells and averaged. The logIC50 value was calculated using the non-linear regression algorithm for a one-site FITlogIC50 using PrismGraphPad 7.2. The graphs represented show the average of the three individual experiments, while the mentioned logIC50 was calculated from the mean of the three

Data set [5] relates to LNCaP (PSMA+) xenografts. Nature of the data set: ex vivo organ distribution, LNCaP xenograft mice. Conditions: LNCaP (PSMA+) xenograft, dissected after PET scan. It counts as in vivo, Balb/c nude mice. On the procedure: All groups were evaluated by visual assessment of the PET image and the percentage injected dose per gram (%ID g^−1).
The animal experiments were all performed according to the ethical guidelines and approved by the local animal welfare committee of the University of Groningen (IvD number 15166-06-001. All animals were caged separately in individually ventilated cages.
7-12 week old immune deficient Balb/c nude mice were inoculated with 200 µL of a 1:1 suspension of medium containing approximately 4 x10^6 LNCaP cells (PSMA positive cells) or 5 x 10^6 PC3 cells (PSMA-negative cells) in RPMI-1640, and Matrigel Basement Membrane Matrix High concentration. The cells were subcutaneously inoculated on the right shoulder.
After 3 to 5 weeks for LNCaP-xenografts, 2-3 weeks for PC3-xenografts or when a tumor size of 1cm3 was reached, the animals were transported to the PET imaging facility. For the […]
prepared and 100 µL were injected via penile vein injection 30 min prior to the tracer injection. Animals were anesthetized at 5 % isoflurane and maintained under 2 % isoflurane enriched with O2. The dynamic PET scan was started within 5 min after tracer injection with an acquisition time of 90 min. The static scan was performed 60 min after tracer injection with an acquisition time of 30 min.
7.2. Organ distribution and Metabolite analysis.
After sacrificing the animals, the organs were dissected and measured in a γ-counter. The obtained CPM’s were normalized to %ID/g (Table shown in main text). […]
In order to check for the significant differences, we also checked for the Cohen’s d, a measurement to determine the effect size. It is calculated on the following formula:
Cohen′sD = Mean1− Mean2 . […]

Setting [6] is: given as logIC50, single experiments, radioligand [18F]PSMA-1007, read-out: logIC50, individual experiments (converted).

The structures appear in SMILES notation. Values joined by “and” are separate entries in the source; they are usually repeats but may differ in a detail not shown here. Equal entries are not always repeated.

T1 sequence (Q04609 whole entry): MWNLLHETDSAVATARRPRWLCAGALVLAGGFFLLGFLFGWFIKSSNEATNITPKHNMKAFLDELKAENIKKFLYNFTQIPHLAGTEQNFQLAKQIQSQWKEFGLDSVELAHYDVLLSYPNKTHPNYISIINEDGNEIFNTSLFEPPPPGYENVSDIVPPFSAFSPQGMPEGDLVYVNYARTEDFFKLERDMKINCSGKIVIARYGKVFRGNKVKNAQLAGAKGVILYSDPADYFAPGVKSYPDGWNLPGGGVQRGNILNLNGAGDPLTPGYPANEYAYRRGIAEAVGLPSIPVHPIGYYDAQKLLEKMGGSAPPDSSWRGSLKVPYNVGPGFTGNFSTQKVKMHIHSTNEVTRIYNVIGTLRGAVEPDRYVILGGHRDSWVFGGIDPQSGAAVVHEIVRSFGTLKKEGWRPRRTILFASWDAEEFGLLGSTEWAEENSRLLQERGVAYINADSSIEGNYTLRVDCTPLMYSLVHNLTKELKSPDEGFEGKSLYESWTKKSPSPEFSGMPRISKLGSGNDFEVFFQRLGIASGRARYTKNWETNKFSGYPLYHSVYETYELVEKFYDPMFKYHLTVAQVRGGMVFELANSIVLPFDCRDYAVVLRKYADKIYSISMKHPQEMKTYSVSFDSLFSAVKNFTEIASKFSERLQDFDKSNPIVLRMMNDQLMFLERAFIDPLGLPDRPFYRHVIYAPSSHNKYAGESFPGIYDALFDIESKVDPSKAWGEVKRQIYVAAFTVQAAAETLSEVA

`O=C(O)CC[C@H](NC(=O)N[C@@H](CCCCNC(=O)c1ccc(-c2cn(CCOCCOCCOc3ccc(CCF)cc3)nn2)cc1)C(=O)O)C(=O)O` [F-PSMA-MIC02]: in data set [1] (setting [6]), the IC50 is 44.7 nM and 45.7 nM and 30.9 nM.

In the case of `O=C(O)CC[C@H](NC(=O)N[C@@H](CCCCNC(=O)c1ccc(Cn2cc(COCCOCCF)nn2)cc1)C(=O)O)C(=O)O` [F-PSMA-MIC03], the IC50 in data set [1] (printed as logIC50 (negative values), mean of n=3 (MIC03 n=4), radioligand [18F]PSMA-1007, read-out: logIC50 (converted)) is 275 nM.

Take `O=C(O)CC[C@H](NC(=O)N[C@@H](CCCCNC(=O)[C@H](Cc1ccc2ccccc2c1)NC(=O)c1ccc(CNC(=O)[C@H](CCC(=O)O)NC(=O)[C@H](CCC(=O)O)NC(=O)c2ccc([18F])nc2)cc1)C(=O)O)C(=O)O` [[^18F]PSMA‐1007]: in data set [2], the LNCaP tumor uptake was 8.04±2.4 %ID g^−1.

On to `O=C(O)CC[C@H](NC(=O)N[C@@H](CCCCNC(=O)c1ccc(Cn2cc(COCCOCCOc3ccc(CCF)cc3)nn2)cc1)C(=O)O)C(=O)O` [F-PSMA-MIC04], for which the IC50 in data set [1] (setting [6]) was 245 nM and 151 nM and 490 nM.

As usually defined, the logD is lipophilicity at a set pH, counting ionised and neutral species. The compound `O=C(O)CC[C@H](NC(=O)N[C@@H](CCCCNC(=O)c1ccc(-c2cn(CCOCCOCCOc3ccc(CC[18F])cc3)nn2)cc1)C(=O)O)C(=O)O` [[^18F]PSMA‐MIC02] had a logD in data set [3] of -3.22 ± 0.1.

With `O=C(O)CCc1ccc(O)c(CN(CCN(CC(=O)O)Cc2cc(CCC(=O)NCCCCCC(=O)NCCCC[C@H](NC(=O)N[C@@H](CCC(=O)O)C(=O)O)C(=O)O)ccc2O)CC(=O)O)c1` [precursor of PSMA-11, reference compound], the “logIC50, individual experiments (No 1-3)” value in data set [4] (given as logIC50, single experiments, radioligand [68Ga]PSMA-11, listed as PSMA-11 precursor) is -7.12 and -7.03 and -7.53.

Regarding `O=C([O-])CN(CCN(CC(=O)[O-])Cc1cc(CCC(=O)NCCCCCC(=O)NCCCC[C@H](NC(=O)N[C@@H](CCC(=O)O)C(=O)O)C(=O)O)ccc1[O-])Cc1cc(CCC(=O)O)ccc1[O-].[68Ga+3].[OH3+]` [[^68Ga]PSMA‐11, reference compound], in data set [5], the “ex vivo uptake bone” value is listed as 0.1±0.1 %ID g^−1, the “ex vivo uptake brain” value amounted to 0.0±0.0 %ID g^−1, the “ex vivo uptake heart” value was found to be 0.2±0.0 %ID g^−1 and the “ex vivo uptake kidney” value was determined as 69.1±21.1 %ID g^−1. In data set [5], the “ex vivo uptake large intestine” value came to 0.7±0.9 %ID g^−1, the “ex vivo uptake liver” value came to 0.2±0.3 %ID g^−1, the “ex vivo uptake lungs” value is recorded as 1.1±0.4 %ID g^−1 and the “ex vivo uptake muscles” value was determined as 0.2±0.1 %ID g^−1. In addition, in data set [5], the “ex vivo uptake pancreas” value is given as 0.6±0.6 %ID g^−1, the “ex vivo uptake plasma” value stood at 1.0±0.5 %ID g^−1, the “ex vivo uptake salivary glands” value is listed as 0.9±0.4 %ID g^−1 and the “ex vivo uptake small intestine” value amounted to 0.5±0.6 %ID g^−1. In data set [5], the “ex vivo uptake spleen” value amounted to 15.9±7.3 %ID g^−1, the “ex vivo uptake stomach” value is 0.4±0.2 %ID g^−1, the “ex vivo uptake tumor” value is given as 6.8±6.3 %ID g^−1 and the “ex vivo uptake urine” value is 45.4±30.8 %ID g^−1. Further, the “ex vivo uptake whole blood” value in data set [5] was determined as 2.2±3.8 %ID g^−1.

On to `O=C(O)CC[C@H](NC(=O)N[C@@H](CCCCNC(=O)c1ccc(-c2cn(CCOCCOCCF)nn2)cc1)C(=O)O)C(=O)O` [F-PSMA-MIC01], for which the IC50 in data set [4] (given as logIC50, single experiments, radioligand [68Ga]PSMA-11, read-out: logIC50, individual experiments (No 1-3) (converted)) was 57.5 nM and 138 nM and 257 nM; in data set [4] (printed as logIC50 (negative values), mean of three experiments, radioligand [68Ga]PSMA-11, 90 min 37°C, read-out: logIC50 (converted)) it was 129 nM; in data set [1] (setting [6]) it was 363 nM and 851 nM and 219 nM.

Source of the values: PMC7496508, “Modular Medical Imaging Agents Based on Azide–Alkyne Huisgen Cycloadditions: Synthesis and Pre‐Clinical Evaluation of ^18F‐Labeled PSMA‐Tracers for Prostate Cancer Imaging” (Chemistry (Weinheim an Der Bergstrasse, Germany), 2020).
